Here are results for 102 molecules from PubChem BioAssay AID1996.

Converted amounts (≈) assume the structure as drawn.

The conditions of the data set: buffer; pH 7.4; 200.0 µM.
Usually kinetic solubility stands for solubility judged after dilution from a stock solution rather than from solid. `COc1ccc(S(=O)(=O)N2CCN(C)CC2)c(C)c1` showed a kinetic solubility above 42.7 µg/mL. Under `CCN(CC)CC(=O)Nc1sc(C)cc1C(=O)c1ccccc1` stands 2.5 µg/mL (≈ 7.57 µM); under `O=[N+]([O-])c1cc(C(F)(F)F)ccc1NCC1CCCO1` (configuration not stated), 0.6 µg/mL (≈ 2.07 µM).

Turning to `Cn1c(=O)[nH]c(=O)c2c1[nH]c(=S)n2Cc1ccc(Cl)cc1`, the solubility (kinetic) is 42.3 µg/mL (≈ 131 µM). In turn, `O=C(/C=C/c1ccccc1[N+](=O)[O-])NCc1ccccc1Cl` registered a kinetic solubility of 1.5 µg/mL (≈ 4.74 µM).

For the molecule `O=C(NCC1CCCO1)c1ccc(NC(=O)c2cc(F)c(F)cc2Cl)cc1` (configuration not stated), the solubility (kinetic) worked out at 5.3 µg/mL (≈ 13.4 µM). The value for `COc1ccc(NC(=O)Cn2cc(C(=O)C3CC3)c3ccccc32)cc1` was 0.5 µg/mL (≈ 1.44 µM). Take `COc1ccc(CN2CCC(C(=O)c3ccc(F)cc3)CC2)cc1`: the solubility (kinetic) was above 49.1 µg/mL. For the molecule `O=C(c1cc(F)c(F)cc1Cl)N1CCCc2ccccc21`, the solubility (kinetic) is 30.3 µg/mL (≈ 98.5 µM). The value for `CCOc1ccc(Cc2onc3c2C(=O)CC(C)(C)C3)cc1OCC` was 32.6 µg/mL (≈ 94.9 µM); that for `O=C(COC(=O)c1ccc2ncsc2c1)Nc1ccc(OC(F)(F)F)cc1` was 4.4 µg/mL (≈ 11.1 µM). `CC(CCn1cccn1)NC(=O)CCc1nnc(C2CCCCC2)o1` (configuration not stated) had a solubility (kinetic) above 51.8 µg/mL. Under `CC(C)C(NC(=O)C1CCCCC1)C(=O)NCCc1ccccc1` (configuration not stated) stands 1.3 µg/mL (≈ 3.93 µM); under `Cc1nc(C)c(N)c(=O)[nH]1.Cl`, above 26.3 µg/mL. Regarding `CCCC(=O)Nc1ccc2c(c1)nc(CCN1CCCCC1)n2C`, the kinetic solubility was above 49.3 µg/mL.

`Cc1ccc(NC(=O)COC(=O)C2CC2(Cl)Cl)cc1C` (configuration not stated) yielded a solubility (kinetic) of 47.1 µg/mL (≈ 149 µM). In turn, `CC(C)NC(=O)C1c2ccccc2Oc2ccccc21` gave a solubility (kinetic) of 1.1 µg/mL (≈ 4.11 µM). Consider `CN(C)CC/C=C1/c2cc(F)ccc2Sc2ccc(Cl)cc21.Cl`, for which the solubility (kinetic) came out at 32.8 µg/mL. `CNC(=O)c1ncoc1-c1ccc(Cl)cc1` yielded a solubility (kinetic) of 33.8 µg/mL (≈ 143 µM).

Regarding `N/C(CC1CC1(Cl)Cl)=N\OC(=O)c1ccccc1` (configuration not stated), the solubility (kinetic) is above 43.1 µg/mL.

`CCCN(C(=O)/C=C/c1ccc(S(=O)(=O)N(CC)CC)cc1)C1CCS(=O)(=O)C1` (configuration not stated) returned a kinetic solubility above 66.4 µg/mL.

On to `CC(=O)c1cccc(NC(=O)NC2CCCCCCC2)c1`, for which the kinetic solubility was 2.5 µg/mL (≈ 8.67 µM). Under `Cc1ccc(N=C2NC(=O)CS2)cc1C` stands 32.7 µg/mL (≈ 148 µM); under `CCCCNC(=O)c1cc2cccc([N+](=O)[O-])c2[nH]1`, 27.3 µg/mL (≈ 104 µM). Under `O=C(Cn1c(=O)cnc2ccccc21)NC1CCC(O)CC1` (configuration not stated) stands above 45.2 µg/mL; under `FC(F)(F)c1cccc(OCc2noc(-c3ccsc3)n2)c1`, below 0.3 µg/mL. On to `O=C(NC1CCC(O)CC1)c1ccc(Br)o1` (configuration not stated), for which the kinetic solubility is above 43.2 µg/mL. Under `CCOc1ccc(NC(=O)/C(C#N)=C/c2cn(CC(=O)O)c3ccccc23)cc1` stands above 58.4 µg/mL; under `Cc1ccc(OCCC(=O)Nc2ccc(C)c(F)c2)cc1`, 1.4 µg/mL (≈ 4.87 µM); under `O=C(c1ccco1)N1CCN(S(=O)(=O)c2cccc([N+](=O)[O-])c2)CC1`, above 54.8 µg/mL.

As for `Cc1ccc(S(=O)(=O)/N=C(/c2ccccc2)N(C)C)c(C)c1`, the kinetic solubility is above 47.5 µg/mL. The value for `CC(C)(C)NC(=O)NC(=O)CN1CC=C(c2ccccc2)CC1` was 38.9 µg/mL (≈ 123 µM). Under `CC(C)OP(=O)(c1ccc(N(C)C)cc1)C(O)c1cccnc1` (configuration not stated) stands above 50.2 µg/mL; under `COc1ccc(CC(=O)NCc2csc(-c3cccs3)n2)cc1OC`, 54.6 µg/mL (≈ 146 µM). Turning to `COC(=O)c1cc(C(=O)OC)cc(-n2c(C)cc(C=O)c2C)c1`, the solubility (kinetic) was 35.8 µg/mL (≈ 114 µM). The value for `CC(CN1CCCCC1)OC(=O)c1cccc(F)c1.Cl` (configuration not stated) was 42.4 µg/mL. Consider `Cc1ccc(/C=[N+](\[O-])c2ccccc2C)o1`, for which the kinetic solubility was found to be 22.2 µg/mL (≈ 103 µM). Compared with the last molecule, the solubility kinetic is about 1.9-fold lower. `Cc1ccc(C(=O)OCC(=O)NCc2ccco2)cc1C` gave a solubility (kinetic) of 12.8 µg/mL (≈ 44.6 µM). Compared with the last molecule, the solubility kinetic is about 1.7-fold lower. Under `Cc1cccc(Nc2ncccc2C(=O)O)c1C` stands above 36.3 µg/mL; under `CC(=O)Nc1ccc(OCCC[n+]2cccc(C(=O)[O-])c2)cc1`, 39.6 µg/mL (≈ 126 µM). Under `O=C(CN1c2cccc3cccc(c23)S1(=O)=O)Nc1c(F)c(F)c(F)c(F)c1F` stands 1.3 µg/mL (≈ 3.03 µM); under `Cc1ccc(NC(=O)C2CC3CCC2C3)c(Br)c1` (configuration not stated), 1.9 µg/mL (≈ 6.16 µM); under `Cc1nonc1NC(=O)CSc1nnc(N)s1`, above 40.8 µg/mL. As for `COc1ccc(/C=C/C(=O)OCC(=O)NC(C)CCc2ccccc2)cc1` (configuration not stated), the solubility (kinetic) was 3.7 µg/mL (≈ 10.1 µM). For `CCn1cc(C(c2ccccc2)C(C(C)=O)[N+](=O)[O-])c2ccccc21` (configuration not stated), the solubility (kinetic) worked out at 4.8 µg/mL (≈ 14.3 µM). The value for `O=C(Cc1cccs1)NCc1cc(Cl)cc(Cl)c1` was 34.3 µg/mL (≈ 114 µM); that for `COc1cc(C(=O)COC(=O)c2c(C)noc2C)cc(OC)c1OC` was above 52.4 µg/mL; that for `COc1cccc(NC(=O)CCN2C(=O)C3CC=CCC3C2=O)c1` (configuration not stated) was above 49.3 µg/mL.

Molecule `O=[N+]([O-])c1cc(C(F)(F)F)ccc1NCCc1ccncc1` yielded a kinetic solubility of 1.6 µg/mL (≈ 5.14 µM). Under `CCCCn1c(=O)c(C(=O)Nc2ccccc2F)c(O)c2ccccc21` stands below 0.4 µg/mL. The value for `CCOC(=O)c1cc(C#N)c(Nc2ccccc2OC)nc1C(F)(F)F` was below 0.3 µg/mL; that for `O=C(Nc1ccccc1F)c1cnccn1` was above 32.6 µg/mL. Turning to `CCc1c(C(=O)NCCc2cccc(C)c2)[nH]c(C)c1C(C)=O`, the solubility (kinetic) was determined as 5 µg/mL (≈ 16 µM).

`O=C(CCSCc1ccccc1F)NCc1ccc(F)cc1` gave a solubility (kinetic) of 32.8 µg/mL (≈ 102 µM). The value for `COc1ccc(S(=O)(=O)NC(C)C(=O)NCc2ccncc2)cc1Cl` (configuration not stated) was above 57.6 µg/mL; that for `O=C(CCCN1C(=O)/C(=C\c2ccccc2)SC1=S)N1CCOCC1` was 9.8 µg/mL (≈ 26 µM). The molecule `Cn1c(CNc2ccc(O)cc2)nc2ccccc21` displayed a solubility (kinetic) of 35 µg/mL (≈ 138 µM). The value for `COc1ccc(-c2nc3n(c(=O)c2C#N)CCS3)c(OC)c1` was above 47.3 µg/mL; that for `Cc1cc(N/C=C(\C#N)S(=O)(=O)c2ccc(Cl)cc2)nc(C)n1` was 12.9 µg/mL (≈ 37 µM); that for `CCOc1ccc(N/C(=N/c2nc(C)cc(C)n2)NC(C)=O)cc1` was 15.1 µg/mL (≈ 46.1 µM). Molecule `CC(=O)N1CCN(c2ccc(S(C)(=O)=O)cc2[N+](=O)[O-])CC1` came in with a kinetic solubility above 49.1 µg/mL. As for `COC(=O)c1ccc(/C=C/C(=O)OCC(=O)NCc2cccs2)cc1`, the solubility (kinetic) came to 27.4 µg/mL (≈ 76.2 µM). The molecule `Cc1sc2nc(-c3cccs3)oc(=O)c2c1C` displayed a solubility (kinetic) below 0.6 µg/mL. Under `O=C(CC(=O)NCc1ccccc1)NCc1ccccc1` stands above 42.4 µg/mL; under `CC#CC(=O)NC1CCCN(C2Cc3ccccc3C2)C1` (configuration not stated), above 42.4 µg/mL. The value for `CCOc1ccc(CN(C)C(C)C(=O)NCc2ccccc2)cc1` (configuration not stated) was above 49 µg/mL; that for `Fc1cccc(COc2ccccc2C(=S)N2CCCC2)c1` was 15 µg/mL (≈ 47.6 µM). Take `CC(C)CCNC(=O)C1CCC(=O)N1CCc1ccccc1` (configuration not stated): the kinetic solubility turned out to be 42.8 µg/mL (≈ 142 µM). In turn, `COc1ccc(C(=O)NCCc2c[nH]c3ccccc23)cc1` gave a kinetic solubility of 42.6 µg/mL (≈ 145 µM). Molecule `Cc1ccc(NS(=O)(=O)c2c(C)[nH]c(=O)[nH]c2=O)c(C)c1` came in with a solubility (kinetic) above 46.4 µg/mL.

`COc1ccc(-c2c(C(=O)O)c(C(=O)O)c3n2CCC3)cc1` returned a solubility (kinetic) above 45.2 µg/mL. The value for `Cc1cc2c(OCC(O)CNCc3ccco3)cccc2[nH]1` (configuration not stated) was 43.4 µg/mL (≈ 144 µM); that for `CCOc1cccc(C(=O)Nc2cccc(NC(=O)c3ccco3)c2)c1` was 3.9 µg/mL (≈ 11.1 µM); that for `CCC(CCC(=O)Nc1cccc([N+](=O)[O-])c1)C(=O)O` (configuration not stated) was above 42 µg/mL.

In turn, `CC1CC(C)CN(C(=O)C(C)N2CCN(S(=O)(=O)c3ccccc3F)CC2)C1` (configuration not stated) returned a kinetic solubility of 51.7 µg/mL (≈ 126 µM). Under `CC(C)N(C)S(=O)(=O)c1ccc(Cl)c(C(=O)O)c1` stands above 43.8 µg/mL; under `O=C(COC(=O)c1cccnc1Cl)NCc1ccco1`, above 44.2 µg/mL. Turning to `O=C(O)c1cc(S(=O)(=O)N2CCCCC2)ccc1Cl`, the solubility (kinetic) is above 45.6 µg/mL. Under `NC1=C(Br)C(=O)c2ccccc2C1=O` stands 37.3 µg/mL (≈ 148 µM); under `COc1ccc(CC(=O)NCc2nc(-c3ccccc3)no2)cc1`, 13.4 µg/mL (≈ 41.4 µM); under `Cc1onc(-c2ccccc2)c1C(=O)NC(C)CCc1ccccc1` (configuration not stated), 1.1 µg/mL (≈ 3.29 µM). Under `Cc1ccc(C(=O)NCCn2ccc3ccccc32)cc1[N+](=O)[O-]` stands 3.9 µg/mL (≈ 12.1 µM); under `O=C(COc1ccc(F)cc1Br)NCC1COc2ccccc2O1` (configuration not stated), 17.5 µg/mL (≈ 44.2 µM). The value for `CSC1=NC2(CCCCC2)CC12C=CC(=O)C=C2` was 36.2 µg/mL (≈ 138 µM); that for `COc1ccc2cc(Br)ccc2c1CC(=O)NCCCN1CCOCC1` was above 63.2 µg/mL. `COc1ccc(C(=O)NCCCNC(=O)c2cc3ccccc3[nH]2)cc1OC` returned a solubility (kinetic) above 57.2 µg/mL.

Consider `COc1ccc(/C=N/NC(=O)c2ccccc2O)cc1CN1CCOCC1`, for which the solubility (kinetic) was above 55.4 µg/mL. `O=C(CCl)Nc1cccc(S(=O)(=O)NC2=NCCCCC2)c1` registered a solubility (kinetic) above 51.6 µg/mL. Under `CS(=O)(=O)NCCNc1ccc(C(F)(F)F)cc1[N+](=O)[O-]` stands 30.3 µg/mL (≈ 92.6 µM); under `CC(=O)Nc1cccc2c1C(=O)N(c1cccc(OC(C)=O)c1)C2=O`, above 50.7 µg/mL; under `Cc1cc2oc(=O)cc(Cn3ccnc3)c2cc1Cl`, 34.3 µg/mL (≈ 125 µM). `CN(C(=O)c1ccc2c(c1)OCO2)C1CCS(=O)(=O)C1` (configuration not stated) gave a solubility (kinetic) above 44.6 µg/mL. In turn, `CC(C)(C)OC(=O)NCCC(=O)N/N=C/c1ccc2nccnc2c1` had a solubility (kinetic) above 51.5 µg/mL. The value for `Cc1ccc([N+](=O)[O-])c(OCc2ncc(Cl)n2C)c1` was 9.8 µg/mL (≈ 34.8 µM); that for `CC(C)c1ccc(NC(=S)Nc2cccc3ccccc23)cc1` was 1.8 µg/mL (≈ 5.62 µM); that for `COc1ccc(-c2nc3ccccn3c2Cl)cc1` was 4.4 µg/mL (≈ 17 µM). For `O=C(/C=C/c1ccccc1)OCCN1C(=O)c2ccccc2C1=O`, the solubility (kinetic) was below 0.7 µg/mL.

In turn, `COc1ccc(/C=C/C(=O)OCC(=O)NC(C)CCc2ccccc2)cc1OC` (configuration not stated) returned a kinetic solubility of 23.9 µg/mL (≈ 60.1 µM). As for `COc1ccc(CCNC(=O)c2cccn2C)cc1`, the solubility (kinetic) turned out to be 33.3 µg/mL (≈ 129 µM). This solubility kinetic and that of the molecule before are within 1.5-fold of each other. The molecule `COc1ccc(CCNC(=O)c2cc(=O)c3cc(C)ccc3o2)cc1` displayed a kinetic solubility of 6.6 µg/mL (≈ 19.6 µM).

Molecule `Cc1cccc(OCCCCCN2CCOCC2)c1C` registered a solubility (kinetic) of 28.6 µg/mL (≈ 103 µM).

Regarding `Cc1cccn2cc(-c3ccc(Cl)cc3)nc12`, the solubility (kinetic) was 2.7 µg/mL (≈ 11.1 µM). This solubility kinetic lies about 11-fold lower than the previous one.
